# According to ChEMBL document CHEMBL1136564, “Sordaricin antifungal agents” (2003):
# Columns and labels:
# Candida albicans = assay: Minimum inhibitory concentration to inhibit 90 to 100% visible growth of Candida albicans; format: functional
# Nakaseomyces glabratus = assay: Minimum inhibitory concentration required to inhibit 90 to 100% visible growth of Candida glabrata; format: functional
Structure (SMILES),MIC (Candida albicans) [µg/mL],MIC (Nakaseomyces glabratus) [µg/mL]
CC(C)C1=CC2CC3(C=O)C4CC[C@@H](C)C4CC2(CCOC(=O)[C@H](NC(=O)OC(C)(C)C)c2ccccc2)C13C(=O)O (stereo partly drawn),4,> 128
CC(C)C1=CC2CC3(C=O)C4CC[C@@H](C)C4CC2(CCOC(=O)Cc2csc4ccccc24)C13C(=O)O (stereo partly drawn),8,> 128
CC(C)C1=CC2CC3(C=O)C4CC[C@@H](C)C4CC2(CCOC(=O)CCN2CCCCC2)C13C(=O)O (stereo partly drawn),> 128,> 128
CC(C)C1=CC2CC3(C=O)C4CC[C@@H](C)C4CC2(CCOC(=O)CCc2c[nH]c4ccccc24)C13C(=O)O (stereo partly drawn),> 128,> 128
CC(C)C1=CC2CC3(C=O)C4CC[C@@H](C)C4CC2(CCOC(=O)c2ccc4c(c2)OCO4)C13C(=O)O (stereo partly drawn),2,> 128
CC(C)CCOCCC12CC3C(CC[C@H]3C)C3(C=O)CC1C=C(C(C)C)C32C(=O)O (stereo partly drawn),2,64
CC(C)C1=CC2CC3(C=O)C4CC[C@@H](C)C4CC2(CCOC(=O)c2ccc(S(N)(=O)=O)cc2)C13C(=O)O (stereo partly drawn),> 128,> 128
CC(C)C1=CC2CC3(C=O)C4CC[C@@H](C)C4CC2(CCOC(=O)Cc2c[nH]c4ccccc24)C13C(=O)O (stereo partly drawn),–,> 128
CC(C)C1=CC2CC3(C=O)C4CC[C@@H](C)C4CC2(CCOC(=O)c2ccc(Cl)nc2)C13C(=O)O (stereo partly drawn),4,> 128
CCCOc1ccc(C(=O)OCCC23CC4C(CC[C@H]4C)C4(C=O)CC2C=C(C(C)C)C43C(=O)O)cc1 (stereo partly drawn),128,> 128
CC(C)C1=CC2CC3(C=O)C4CC[C@@H](C)C4CC2(CCOC(=O)[C@H](C)NC(=O)OC(C)(C)C)C13C(=O)O (stereo partly drawn),32,> 128
CSc1ccc(C(=O)OCCC23CC4C(CC[C@H]4C)C4(C=O)CC2C=C(C(C)C)C43C(=O)O)cc1 (stereo partly drawn),2,> 128
CC(C)C1=CC2CC3(C=O)[C@@H]4CC[C@@H](C)[C@H]4CC2(C(O)C#Cc2ccccc2)[C@]13C(=O)O (stereo partly drawn),0.25,8
CC(C)C1=CC2CC3(C=O)C4CC[C@@H](C)C4CC2(CCOC(=O)CSc2ccccc2)C13C(=O)O (stereo partly drawn),0.5,32
CC(C)C1=CC2CC3(C=O)C4CC[C@@H](C)C4CC2(CCOC(=O)C2CCCC2)C13C(=O)O (stereo partly drawn),0.125,4
CC(C)C1=CC2CC3(C=O)C4CC[C@@H](C)C4CC2(CCOC(=O)c2cccs2)C13C(=O)O (stereo partly drawn),> 128,> 128
CC(C)C1=CC2CC3(C=O)C4CC[C@@H](C)C4CC2(CCOC(=O)c2cc4ccccc4o2)C13C(=O)O (stereo partly drawn),> 128,> 128
CC(C)C1=CC2CC3(C=O)C4CC[C@@H](C)C4CC2(CCOC(=O)[C@@H]2CCC(=O)N2)C13C(=O)O (stereo partly drawn),> 128,> 128
CC(C)C1=CC2CC3(C=O)C4CC[C@@H](C)C4CC2(CCOC(=O)c2cccc(C#N)c2)C13C(=O)O (stereo partly drawn),1,> 128
C=Cc1ccc(C(=O)OCCC23CC4C(CC[C@H]4C)C4(C=O)CC2C=C(C(C)C)C43C(=O)O)cc1 (stereo partly drawn),4,> 128
CC(C)C1=CC2CC3(C=O)C4CC[C@@H](C)C4CC2(CCOC(=O)c2cncc(Br)c2)C13C(=O)O (stereo partly drawn),4,> 128

# Continued, values first:
MIC (Candida albicans) [µg/mL],MIC (Nakaseomyces glabratus) [µg/mL],Structure (SMILES)
> 128,> 128,CC(C)C1=CC2CC3(C=O)[C@@H]4CC[C@@H](C)[C@H]4CC2(C(O)CCc2ccccc2)[C@]13C(=O)O (stereo partly drawn)
< 0.06,8,C=CCCCCC(=O)OCCC12CC3C(CC[C@H]3C)C3(C=O)CC1C=C(C(C)C)C32C(=O)O (stereo partly drawn)
4,> 128,CC(C)C1=CC2CC3(C=O)C4CC[C@@H](C)C4CC2(CCOC(=O)c2cnc4ccccc4c2)C13C(=O)O (stereo partly drawn)
> 128,> 128,CCCCCCCCCCCCCCCCC(=O)C12C[C@@H]3[C@H](C)CC[C@H]3C3(C=O)CC1C=C(C(C)C)[C@@]23C(=O)O
> 128,> 128,CC(C)C1=CC2CC3(C=O)C4CC[C@@H](C)C4CC2(CCOC(=O)c2ccc4[nH]cnc4c2)C13C(=O)O (stereo partly drawn)
4,> 128,CC(C)C1=CC2CC3(C=O)C4CC[C@@H](C)C4CC2(CCOC(=O)c2ccc(F)cc2)C13C(=O)O (stereo partly drawn)
128,> 128,CC(C)C1=CC2CC3(C=O)C4CC[C@@H](C)C4CC2(CCOC(=O)c2ccc([N+](=O)[O-])cc2Cl)C13C(=O)O (stereo partly drawn)
2,64,CC(C)C1=CC2CC3(C=O)C4CC[C@@H](C)C4CC2(CCOC(=O)Cc2ccc(Br)o2)C13C(=O)O (stereo partly drawn)
> 128,> 128,CC(C)C1=CC2CC3(C=O)[C@@H]4CC[C@@H](C)[C@H]4CC2(C(=O)C#CC(C)(C)C)[C@]13C(=O)O
< 128,> 128,CC(C)C1=CC2CC3(C=O)C4CC[C@@H](C)C4CC2(CCOC(=O)CCC(=O)O)C13C(=O)O (stereo partly drawn)
8,> 128,CC(C)C1=CC2CC3(C=O)C4CC[C@@H](C)C4CC2(CCOC(=O)c2ccc(C#N)cc2)C13C(=O)O (stereo partly drawn)
